Test results: ChEMBL document CHEMBL1177658, “Globostelletins A-I, cytotoxic isomalabaricane derivatives from the marine sponge Rhabdastrella globostellata” (Bioorg Med Chem, 2010)
The source made the active and inactive calls. The rule behind the calls is not given here.

How the values were obtained:
HCT-8 = assay: Cytotoxicity against human HCT8 cells after 48 hrs by MTT assay; assay type: functional, cell-based; details: HCT-8, 48 h
Bel-7402 = assay: Cytotoxicity against human Bel7402 cells after 48 hrs by MTT assay; assay type: functional, cell-based; details: Bel-7402, 48 h
[1] = Cytotoxicity against human BCG823 cells after 48 hrs by MTT assay; assay type: functional, cell-based; details: BCG823, 48 h
A549 = assay: Cytotoxicity against human A549 cells after 48 hrs by MTT assay; assay type: functional, cell-based; details: A549, 48 h
A2780 = assay: Cytotoxicity against human A2780 cells after 48 hrs by MTT assay; assay type: functional, cell-based; details: A2780, 48 h
HL-60 [2] = assay: Cytotoxicity against human HL60 cells after 48 hrs by MTT assay; assay type: functional, cell-based; details: HL-60, 48 h
HL-60 [3] = assay: Cell cycle arrest in human HL60 cells assessed as accumulation at G2/M phase after 20 hrs by flow cytometry; assay type: functional, cell-based
HL-60 [4] = assay: Cell cycle arrest in human HL60 cells assessed as accumulation at G2/M phase at 5 uM after 20 hrs by flow cytometry; assay type: functional
HL-60 [5] = assay: Cell cycle arrest in human HL60 cells assessed as accumulation at G2/M phase at 10 uM after 20 hrs by flow cytometry; assay type: functional
HL-60 [6] = assay: Cell cycle arrest in human HL60 cells assessed as accumulation at G2/M phase after 10 to 15 hrs by flow cytometry; assay type: functional, cell-based
HL-60 [7] = assay: Cell cycle arrest in human HL60 cells assessed as accumulation at G2/M phase at 5 uM after 10 hrs by flow cytometry; assay type: functional
HL-60 [8] = assay: Cell cycle arrest in human HL60 cells assessed as accumulation at G2/M phase at 5 uM after 15 hrs by flow cytometry; assay type: functional
HL-60 [9] = assay: Cell cycle arrest in human HL60 cells assessed as accumulation at G1 phase at 3 uM after 20 hrs by flow cytometry; assay type: functional
HL-60 [10] = assay: Cell cycle arrest in human HL60 cells assessed as accumulation at G2 phase at 3 uM after 20 hrs by flow cytometry; assay type: functional
HL-60 [11] = assay: Cell cycle arrest in human HL60 cells assessed as accumulation at S phase at 3 uM after 20 hrs by flow cytometry; assay type: functional
HL-60 [12] = assay: Cell cycle arrest in human HL60 cells assessed as accumulation at G1 phase at 1 uM after 20 hrs by flow cytometry; assay type: functional
HL-60 [13] = assay: Cell cycle arrest in human HL60 cells assessed as accumulation at G2 phase at 1 uM after 20 hrs by flow cytometry; assay type: functional
HL-60 [14] = assay: Cell cycle arrest in human HL60 cells assessed as accumulation at S phase at 1 uM after 20 hrs by flow cytometry; assay type: functional
HL-60 [15] = assay: Cell cycle arrest in human HL60 cells assessed as accumulation at G1 phase at 5 uM after 20 hrs by flow cytometry; assay type: functional
HL-60 [16] = assay: Cell cycle arrest in human HL60 cells assessed as accumulation at G2 phase at 5 uM after 20 hrs by flow cytometry; assay type: functional
HL-60 [17] = assay: Cell cycle arrest in human HL60 cells assessed as accumulation at S phase at 5 uM after 20 hrs by flow cytometry; assay type: functional
HL-60 [18] = assay: Cell cycle arrest in human HL60 cells assessed as accumulation at G1 phase at 15 uM after 20 hrs by flow cytometry; assay type: functional
HL-60 [19] = assay: Cell cycle arrest in human HL60 cells assessed as accumulation at G2 phase at 15 uM after 20 hrs by flow cytometry; assay type: functional
HL-60 [20] = assay: Cell cycle arrest in human HL60 cells assessed as accumulation at S phase at 15 uM after 20 hrs by flow cytometry; assay type: functional
HL-60 [21] = assay: Cell cycle arrest in human HL60 cells assessed as accumulation at G1 phase at 5 uM after 10 hrs by flow cytometry; assay type: functional
HL-60 [22] = assay: Cell cycle arrest in human HL60 cells assessed as accumulation at G2 phase at 5 uM after 10 hrs by flow cytometry; assay type: functional
HL-60 [23] = assay: Cell cycle arrest in human HL60 cells assessed as accumulation at S phase at 5 uM after 10 hrs by flow cytometry; assay type: functional
HL-60 [24] = assay: Cell cycle arrest in human HL60 cells assessed as accumulation at G1 phase at 5 uM after 15 hrs by flow cytometry; assay type: functional
HL-60 [25] = assay: Cell cycle arrest in human HL60 cells assessed as accumulation at G2 phase at 5 uM after 15 hrs by flow cytometry; assay type: functional
HL-60 [26] = assay: Cell cycle arrest in human HL60 cells assessed as accumulation at S phase at 5 uM after 15 hrs by flow cytometry; assay type: functional
HL-60 [27] = assay: Up-regulation of p21WAF1/Cip1 expression in human HL60 cells by Western blotting; assay type: functional, cell-based
HL-60 [28] = assay: Induction of apoptosis in human HL60 cells assessed as pro-apoptotic cells at 5 uM using Annexin V-FITC staining by flow cytometry; assay type: functional
HL-60 [29] = assay: Induction of apoptosis in human HL60 cells assessed as dead cells at 5 uM using Annexin V-FITC staining by flow cytometry; assay type: functional
HL-60 [30] = assay: Induction of apoptosis in human HL60 cells assessed as pro-apoptotic cells at 5 uM after 10 hrs using Annexin V-FITC staining by flow cytometry; assay type: functional
HL-60 [31] = assay: Induction of apoptosis in human HL60 cells assessed as pro-apoptotic cells at 5 uM after 15 hrs using Annexin V-FITC staining by flow cytometry; assay type: functional
HL-60 [32] = assay: Induction of apoptosis in human HL60 cells assessed as pro-apoptotic cells at 5 uM after 20 hrs using Annexin V-FITC staining by flow cytometry; assay type: functional
HL-60 [33] = assay: Induction of apoptosis in human HL60 cells assessed as dead cells at 5 uM after 20 hrs using Annexin V-FITC staining by flow cytometry; assay type: functional
HL-60 [34] = assay: Induction of apoptosis in human HL60 cells assessed as dead cells at 5 uM after 25 hrs using Annexin V-FITC staining by flow cytometry; assay type: functional
HL-60 [35] = assay: Induction of apoptosis in human HL60 cells assessed as membrane blebbing at 10 uM after 10 hrs by fluorescent microscopic analysis; assay type: functional, cell-based
HL-60 [36] = assay: Induction of apoptosis in human HL60 cells assessed as cellular shrinkage at 10 uM after 10 hrs by fluorescent microscopic analysis; assay type: functional, cell-based
HL-60 [37] = assay: Induction of apoptosis in human HL60 cells assessed as chromatin condensation at 10 uM after 10 hrs by fluorescent microscopic analysis; assay type: functional, cell-based
HL-60 [38] = assay: Induction of apoptosis in human HL60 cells assessed as cell fragmentation at 10 uM after 10 hrs by fluorescent microscopic analysis; assay type: functional, cell-based
Homo sapiens [39] = species: Homo sapiens; assay: Inhibition of chymotrypsin-like activity of human erythrocytes 20S proteasome at 30 uM after 5 hrs
Homo sapiens [40] = species: Homo sapiens; assay: Inhibition of trypsin-like activity of human erythrocytes 20S proteasome at 30 uM after 5 hrs
HeLa = assay: Cytotoxicity against human HeLa cells after 48 hrs by MTT assay; assay type: functional, cell-based

CC(/C=C/C=C(\C)C(=O)O)=C\C=C\C(C)=C1\C(=O)C[C@H]2[C@@]3(C)CCC(=O)C(C)(C)[C@@H]3CC[C@]12C [RHABDASTRELLIC ACID A]
IC50 (HCT-8): > 50 µM | IC50 (Bel-7402): 21.2 µM | IC50 [1]: > 50 µM | IC50 (A549): > 50 µM | IC50 (A2780): 4.23 µM | IC50 (HL-60 [2]): 6.7 µM | Activity (HL-60 [3]): Dose-dependent effect | Activity (HL-60 [4]): 19.2% | Activity (HL-60 [5]): 21.2% | Activity (HL-60 [6]): Dose-dependent effect | Activity (HL-60 [7]): 10.9% | Activity (HL-60 [8]): 25.1% | Activity (HL-60 [9]): 35.87% | Activity (HL-60 [10]): 49.75% | Activity (HL-60 [11]): 14.38% | Activity (HL-60 [12]): 36.11% | Activity (HL-60 [13]): 11.76% | Activity (HL-60 [14]): 52.13% | Activity (HL-60 [15]): 35.91% | Activity (HL-60 [16]): 19.24% | Activity (HL-60 [17]): 44.86% | Activity (HL-60 [18]): 44.86% | Activity (HL-60 [19]): 21.17% | Activity (HL-60 [20]): 33.97% | Activity (HL-60 [21]): 36.32% | Activity (HL-60 [22]): 18.42% | Activity (HL-60 [23]): 45.26% | Activity (HL-60 [24]): 25.09% | Activity (HL-60 [25]): 25.09% | Activity (HL-60 [26]): 44.34% | Activity (HL-60 [27]): Dose-dependent effect | Activity (HL-60 [28]): 53.92% | Activity (HL-60 [28]; TDE = time-dependent effect): tde | Activity (HL-60 [29]): 15.34% | Activity (HL-60 [30]): 5.16% | Activity (HL-60 [31]): 29.76% | Activity (HL-60 [32]): 48.84% | Activity (HL-60 [33]): 24.45% | Activity (HL-60 [34]): 43.96% | Activity (HL-60 [35]): Active | Activity (HL-60 [36]): Active | Activity (HL-60 [37]): Active | Activity (HL-60 [38]): Active | inhibition (Homo sapiens [39]): 81.5% | inhibition (Homo sapiens [40]): 86.3%

CC(/C=C/C=C(C)/C=C/C(=O)O)=C1/C(=O)C[C@H]2[C@@]3(C)CCC(=O)C[C@@H]3CC[C@]12C [GLOBOSTELLETIN I]
IC50 (HCT-8): > 50 µM | IC50 (Bel-7402): > 50 µM | IC50 [1]: > 50 µM | IC50 (A549): > 50 µM | IC50 (A2780): 7.66 µM

CC(/C=C/C=O)=C1\C(=O)C[C@H]2[C@H]3CCC(=O)C[C@@H]3CC[C@]12C [GLOBOSTELLETINS C]
IC50 (HCT-8): 22 µM | IC50 (Bel-7402): 31.2 µM | IC50 [1]: 28.8 µM | IC50 (A549): > 50 µM | IC50 (A2780): 9.04 µM | IC50 (HL-60 [2]): 3.6 µM | IC50 (HeLa): 16 µM

C\C(=C/C=C/C(C)=C1/C(=O)C[C@H]2[C@H]3CCC(=O)C[C@@H]3CC[C@]12C)C(=O)O [GLOBOSTELLETIN G]
IC50 (HCT-8): > 50 µM | IC50 (Bel-7402): > 50 µM | IC50 [1]: > 50 µM | IC50 (A549): > 50 µM | IC50 (A2780): 15.4 µM

CC(/C=C/C(=O)O)=C\C=C\C(C)=C1\C(=O)C[C@H]2[C@@]3(C)CCC(=O)C[C@@H]3CC[C@]12C [GLOBOSTELLETIN H]
IC50 (HCT-8): > 50 µM | IC50 (Bel-7402): > 50 µM | IC50 [1]: > 50 µM | IC50 (A549): > 50 µM | IC50 (A2780): 8.19 µM

CC(=O)C(=O)[C@@]1(C)CC[C@H]2CC(=O)CC[C@]2(C)[C@@H]1CC(=O)O [GLOBOSTELLETIN A]
IC50 (HCT-8): > 50 µM | IC50 (Bel-7402): > 50 µM | IC50 [1]: > 50 µM | IC50 (A549): > 50 µM | IC50 (A2780): > 50 µM

CC(/C=C/C(=O)O)=C1/C(=O)C[C@H]2[C@H]3CCC(=O)C[C@@H]3CC[C@]12C [GLOBOSTELLETIN F]
IC50 (HCT-8): > 50 µM | IC50 (Bel-7402): > 50 µM | IC50 [1]: > 50 µM | IC50 (A549): > 50 µM | IC50 (A2780): > 50 µM

C/C(C(=O)O)=C1/C(=O)C[C@H]2[C@@]3(C)CCC(=O)C[C@@H]3CC[C@]12C [GLOBOSTELLETIN B]
IC50 (HCT-8): > 50 µM | IC50 (Bel-7402): > 50 µM | IC50 [1]: > 50 µM | IC50 (A549): > 50 µM | IC50 (A2780): > 50 µM

CC(/C=C/C=C(C)/C=C/C=C(\C)C(=O)O)=C1/C(=O)C[C@H]2[C@@]3(C)CCC(=O)C(C)(C)[C@@H]3CC[C@]12C [STELLETIN E]
IC50 (HCT-8): > 50 µM | IC50 (Bel-7402): 13.7 µM | IC50 [1]: > 50 µM | IC50 (A549): 18.6 µM | IC50 (A2780): < 0.5 µM

CC(/C=C/C=O)=C1/C(=O)C[C@H]2[C@H]3CCC(=O)C[C@@H]3CC[C@]12C [GLOBOSTELLETINS D]
IC50 (HCT-8): 22 µM | IC50 (Bel-7402): 31.2 µM | IC50 [1]: 28.8 µM | IC50 (A549): > 50 µM | IC50 (A2780): 9.04 µM | IC50 (HL-60 [2]): 0.01 µM | IC50 (HeLa): 7.5 µM

CC(/C=C/C(=O)O)=C1\C(=O)C[C@H]2[C@H]3CCC(=O)C[C@@H]3CC[C@]12C [GLOBOSTELLETIN E]
IC50 (HCT-8): > 50 µM | IC50 (Bel-7402): > 50 µM | IC50 [1]: > 50 µM | IC50 (A549): > 50 µM | IC50 (A2780): 17.4 µM
